Experiments:
HLA B*0801 [1] = target: T1, HLA B*0801 (Homo sapiens, UniProt P01889, A93T/A95T/D138N/E176V/E187T/K202T/Q94N/R180D/S35A/V36M/Y33D/Y91F); assay: ITOPIA peptide binding assay; settings: 1.11×10^−4M of peptide
T1 construct: purchased
Protocol: (§1) Peptide binding, off-rate and affinity were measured according to the protocols described in the ITOPIA Epitope Discovery System Customer Guide. To conduct the experiments, ninety-six (96) micro-titer plates coated with MHC molecules representing the HLA alleles listed in Table 9 were used to identify candidate peptides. Determinations were performed in duplicate using an ELISA plate reader. The peptide binding assay used measures the ability of individual peptides to bind to the HLA molecules under standardized optimal binding conditions. The assay was performed for all the test peptides across the selected HLA alleles. The test peptides identified as “binders” were characterized further in terms of affinity and dissociation experiments. The off-rate assay used evaluates the dissociation of previously bound peptide at defined time points (expressed as the t1/2 value). The affinity assay used measures the relative binding affinities for the MHC molecules determined by incubating candidate peptides identified in the initial peptide binding assay at increasing concentrations (expressed as quantity of peptide needed to achieve 50% binding or ED50 value).
(§2) The binding of the test peptides (Table 8) to the HLA molecules (Table 9) was performed at a concentration of 1.11×10^−4M of peptide under optimal, standardized test conditions. A control peptide was run in parallel on the same plate and at the same concentration as the test peptides. […] The level of binding is expressed as a percent of positive control peptide binding for each allele.

HLA A*0301 [2] = target: T2, HLA A*0301 (Homo sapiens, UniProt P04439); assay: ITOPIA peptide binding assay; settings: 1.11×10^−4M of peptide
T2 construct: purchased
Protocol: as §1, §2

HLA B*0702 [3] = target: T3, HLA B*0702 (Homo sapiens, UniProt P01889); assay: ITOPIA peptide binding assay; settings: 1.11×10^−4M of peptide
T3 construct: purchased
Protocol: as §1, §2

HLA A*2402 [4] = target: T4, HLA A*2402 (Homo sapiens, UniProt P04439, D101N/D140Y/D185E/E176V/E190D/F33S/G103R/G107R/I119L/I121M/I306V/K335N/L105A/L180Q/L300P/N151K/N90K/Q86E/Q94H/R106L/R138H/R89G/T104I/T345S/V100E/W191G/Y123F); assay: ITOPIA peptide binding assay; settings: 1.11×10^−4M of peptide
Protocol: as §1, §2

HLA A*0101 [5] = target: T5, HLA A*0101 (Homo sapiens, UniProt P04439, A114D/A174V/A182V/D101N/D185E/E176A/E190D/L180R/Q94H/R68K/S129P/T187R/V100A/V91M/W191G); assay: ITOPIA peptide binding assay; settings: 1.11×10^−4M of peptide
T5 construct: purchased
Protocol: as §1, §2

HLA A*0201 [6] = target: T6, HLA A*0201 (Homo sapiens, UniProt P04439, D140Y/D185E/D98H/E176V/E277Q/G131W/G231S/I119V/I121R/I166T/I218V/L300P/L318F/N151K/N90K/P208A/P217A/Q86G/Q94H/R138H/R169H/T345S); assay: ITOPIA peptide binding assay; settings: 1.11×10^−4M of peptide
Protocol: as §1, §2

HLA A*1101 [7] = target: T7, HLA A*1101 (Homo sapiens, UniProt P04439, A114D/D185E/E176A/F33Y/L180Q/S129P/T187R); assay: ITOPIA peptide binding assay; settings: 1.11×10^−4M of peptide
T7 construct: purchased
Protocol: as §1, §2

HLA B*1501 [8] = target: T8, HLA B*1501 (Homo sapiens, UniProt P01889, A329T/A93T/A95T/C349S/D201E/D98Y/E187L/E204Q/E69M/E70A/K202T/N87E/Q94N/R155S/R180W/S121R/S35A/S48A/V306I/V36M/Y140S/Y91S); assay: ITOPIA peptide binding assay; settings: 1.11×10^−4M of peptide
T8 construct: purchased
Protocol: as §1, §2

HLA B*0801 [9] = target: T1, HLA B*0801; assay: Multi-parametric analysis iScore; format: binding; set-up: scale not given here; settings: index integrating t1/2 and ED50
Protocol: (§3) Multi-parametric analysis was performed to integrate the half-life (t½) and ED50 parameters in an index (iScore). The iScore (Table 13) reflects the capability of a peptide to reconstitute with MHC molecules in a stable complex, defining its overall level of binding.

HLA A*0301 [10] = target: T2, HLA A*0301; assay: Multi-parametric analysis iScore; format: binding; set-up: scale not given here; settings: index integrating t1/2 and ED50
Protocol: as §3

HLA B*0702 [11] = target: T3, HLA B*0702; assay: Multi-parametric analysis iScore; format: binding; set-up: scale not given here; settings: index integrating t1/2 and ED50
Protocol: as §3

HLA A*2402 [12] = target: T4, HLA A*2402; assay: Multi-parametric analysis iScore; format: binding; set-up: scale not given here; settings: index integrating t1/2 and ED50
Protocol: as §3

HLA A*0101 [13] = target: T5, HLA A*0101; assay: Multi-parametric analysis iScore; format: binding; set-up: scale not given here; settings: index integrating t1/2 and ED50
Protocol: as §3

HLA A*0201 [14] = target: T6, HLA A*0201; assay: Multi-parametric analysis iScore; format: binding; set-up: scale not given here; settings: index integrating t1/2 and ED50
Protocol: as §3

HLA A*1101 [15] = target: T7, HLA A*1101; assay: Multi-parametric analysis iScore; format: binding; set-up: scale not given here; settings: index integrating t1/2 and ED50
Protocol: as §3

HLA B*1501 [16] = target: T8, HLA B*1501; assay: Multi-parametric analysis iScore; format: binding; set-up: scale not given here; settings: index integrating t1/2 and ED50
Protocol: as §3

HLA A*0201 [17] = target: T6, HLA A*0201; assay: ITOPIA off-rate assay; format: binding; settings: 37° C., one-phase exponential decay
Protocol: as §1
(§4) The peptides initially identified as binders were evaluated for stability based on their ability to remain bound to MHC molecules at 37° C. at time points 0, 0.5, 1, 1.5, 2, 4, 6 and 8 hours. […] The values obtained for each time point (in duplicate) are expressed (Table 11) as a percentage of the positive control. To calculate the t1/2 and goodness-of-fit, as measured by r^2, for each peptide, a one-phase exponential decay curve, with a plateau given equal to 0, was generated using […] PRISM software.

HLA A*2402 [18] = target: T4, HLA A*2402; assay: ITOPIA off-rate assay; format: binding; settings: 37° C., one-phase exponential decay
Protocol: as §1, §4

## ALFYKLDVV [compound 72]
HLA B*0801 [1]
  level of binding, percent of positive control peptide binding: 3% of positive control
HLA A*0301 [2]
  level of binding, percent of positive control peptide binding: 5% of positive control
HLA B*0702 [3]
  level of binding, percent of positive control peptide binding: 3% of positive control
HLA A*2402 [4]
  level of binding, percent of positive control peptide binding: 14% of positive control
HLA A*0101 [5]
  level of binding, percent of positive control peptide binding: 4% of positive control
HLA A*0201 [6]
  level of binding, percent of positive control peptide binding: 80% of positive control
HLA A*1101 [7]
  level of binding, percent of positive control peptide binding: 1% of positive control
HLA B*1501 [8]
  level of binding, percent of positive control peptide binding: 4% of positive control
HLA B*0801 [9]
  iScore: 0
HLA A*0301 [10]
  iScore: 0
HLA B*0702 [11]
  iScore: 0
HLA A*2402 [12]
  iScore: 0
HLA A*0101 [13]
  iScore: 0
HLA A*0201 [14]
  iScore: 0.484
HLA A*1101 [15]
  iScore: 0
HLA B*1501 [16]
  iScore: 0
HLA A*0201 [17]
  A*0201 t1/2: 4.0 h

## 155 (HNEWTLELL; HIV) [compound 155]
HLA B*0801 [1]
  level of binding, percent of positive control peptide binding: 3% of positive control
HLA A*0301 [2]
  level of binding, percent of positive control peptide binding: 0% of positive control
HLA B*0702 [3]
  level of binding, percent of positive control peptide binding: 1% of positive control
HLA A*2402 [4]
  level of binding, percent of positive control peptide binding: 13% of positive control
HLA A*0101 [5]
  level of binding, percent of positive control peptide binding: 0% of positive control
HLA A*0201 [6]
  level of binding, percent of positive control peptide binding: 5% of positive control
HLA A*1101 [7]
  level of binding, percent of positive control peptide binding: 1% of positive control
HLA B*1501 [8]
  level of binding, percent of positive control peptide binding: 0% of positive control
HLA B*0801 [9]
  iScore: 0
HLA A*0301 [10]
  iScore: 0
HLA B*0702 [11]
  iScore: 0
HLA A*2402 [12]
  iScore: 0
HLA A*0101 [13]
  iScore: 0
HLA A*0201 [14]
  iScore: 0
HLA A*1101 [15]
  iScore: 0
HLA B*1501 [16]
  iScore: 0

## 70 (VPLTEEAEL; HIV) [compound 70]
HLA B*0801 [1]
  level of binding, percent of positive control peptide binding: 4% of positive control
HLA A*0301 [2]
  level of binding, percent of positive control peptide binding: 0% of positive control
HLA B*0702 [3]
  level of binding, percent of positive control peptide binding: 4% of positive control
HLA A*2402 [4]
  level of binding, percent of positive control peptide binding: 6% of positive control
HLA A*0101 [5]
  level of binding, percent of positive control peptide binding: 1% of positive control
HLA A*0201 [6]
  level of binding, percent of positive control peptide binding: 5% of positive control
HLA A*1101 [7]
  level of binding, percent of positive control peptide binding: 1% of positive control
HLA B*1501 [8]
  level of binding, percent of positive control peptide binding: 4% of positive control
HLA B*0801 [9]
  iScore: 0
HLA A*0301 [10]
  iScore: 0
HLA B*0702 [11]
  iScore: 0
HLA A*2402 [12]
  iScore: 0
HLA A*0101 [13]
  iScore: 0
HLA A*0201 [14]
  iScore: 0
HLA A*1101 [15]
  iScore: 0
HLA B*1501 [16]
  iScore: 0

## YNEWTLELL [compound 22]
HLA B*0801 [1]
  level of binding, percent of positive control peptide binding: 3% of positive control
HLA A*0301 [2]
  level of binding, percent of positive control peptide binding: 0% of positive control
HLA B*0702 [3]
  level of binding, percent of positive control peptide binding: 2% of positive control
HLA A*2402 [4]
  level of binding, percent of positive control peptide binding: 35% of positive control
HLA A*0101 [5]
  level of binding, percent of positive control peptide binding: 0% of positive control
HLA A*0201 [6]
  level of binding, percent of positive control peptide binding: 7% of positive control
HLA A*1101 [7]
  level of binding, percent of positive control peptide binding: 1% of positive control
HLA B*1501 [8]
  level of binding, percent of positive control peptide binding: 0% of positive control
HLA B*0801 [9]
  iScore: 0
HLA A*0301 [10]
  iScore: 0
HLA B*0702 [11]
  iScore: 0
HLA A*2402 [12]
  iScore: 0.071
HLA A*0101 [13]
  iScore: 0
HLA A*0201 [14]
  iScore: 0
HLA A*1101 [15]
  iScore: 0
HLA B*1501 [16]
  iScore: 0
HLA A*2402 [18]
  A*2402 t1/2: 1.5 h

## VTLTEEAEL [compound 156]
HLA B*0801 [1]
  level of binding, percent of positive control peptide binding: 4% of positive control
HLA A*0301 [2]
  level of binding, percent of positive control peptide binding: 0% of positive control
HLA B*0702 [3]
  level of binding, percent of positive control peptide binding: 0% of positive control
HLA A*2402 [4]
  level of binding, percent of positive control peptide binding: 11% of positive control
HLA A*0101 [5]
  level of binding, percent of positive control peptide binding: 1% of positive control
HLA A*0201 [6]
  level of binding, percent of positive control peptide binding: 26% of positive control
HLA A*1101 [7]
  level of binding, percent of positive control peptide binding: 1% of positive control
HLA B*1501 [8]
  level of binding, percent of positive control peptide binding: 7% of positive control
HLA B*0801 [9]
  iScore: 0
HLA A*0301 [10]
  iScore: 0
HLA B*0702 [11]
  iScore: 0
HLA A*2402 [12]
  iScore: 0
HLA A*0101 [13]
  iScore: 0
HLA A*0201 [14]
  iScore: 0.110
HLA A*1101 [15]
  iScore: 0
HLA B*1501 [16]
  iScore: 0
HLA A*0201 [17]
  A*0201 t1/2: 1.2 h
